Results taken from PMC6198068, “Discovery of a Novel Nav1.7 Inhibitor From Cyriopagopus albostriatus Venom With Potent Analgesic Efficacy” (Frontiers in Pharmacology, 2018).

Assays:
[1] = tested on: formalin-induced paw licking in mice; assay: Formalin-induced paw licking; type: in vivo, ICR mice; details: mouse, in vivo, ip
Description: (§1) The ICR mice (18–22 g) used in this study were purchased from the Experimental Animal Center of SLac-kinda (Changsha, China). The animals were maintained at 20–25°C and freely allowed to standard rodent chow and water ad libitum. Ethical approval for in vivo experiments in animals was approved by the Animal Care and Use Committee (ACUC) at the Hunan Province Animal Management Office (HPAMO).
A formalin test was performed according to the previous method ([Owoyele et al., 2005]). […] The time spent licking the injected paw by each mouse was recorded by a digital stopwatch during Phase I (0–15 min post-injection) and Phase II (15–40 min post-injection).

hot plate test in mice = assay: Hot plate test; type: in vivo, ICR mice; details: mouse, in vivo
Description: as §1
According to a previous method ([Meng et al., 2017]), a hot plate apparatus (model YLS-21A, Jinan, China) maintained at 55 ± 1°C, was used to measure the pain threshold of mice subjected to a thermal stimulus. Each female mouse was placed on hot plate to observe its pain response (hind-paw-licking or jumping) acted as its own control. The mice whose latent response times were shorter than 5 s or longer than 30 s were excluded from the test.

Nav1.4 = tested on: Nav1.4; parameters: method as in Xiao et al., 2008; Goncalves et al., 2018; details: skeletal isoform; ref Xiao et al., 2008; Goncalves et al., 2018; cited from earlier work

## CN1CC[C@]23c4c5ccc(O)c4O[C@H]2[C@@H](O)C=C[C@H]3[C@H]1C5 [morphine, reference compound]
[1]
  analgesic effect on Phase I compared to control: modest analgesia
  paw licking time, Phase I: 64.1 ± 8.5 s
  paw licking time, Phase II: 126.1 ± 19.8 s
Hot plate test in mice
  latency time, hot plate: 15.2 ± 1.9 s

## HWTX-IV: spider peptide toxin; printed as μ-TRTX-Hhn1b (HWTX-IV) in b50, μ-TRTX-Hs2a (HWTX-IV) in b51
Nav1.4
  IC50: 400 nM
